Data taken from ChEMBL document CHEMBL1121774, “Interaction of 5-ethynyl-2'-deoxyuridylate with thymidylate synthetase” (J Med Chem, 1981).

Assays:
[1] = target: T1, Thymidylate synthase (Lactobacillus casei) (UniProt P00469); experiment: Binding of 0.1 mM [14C]5,10-CH2-H4 folate to 2.5 nmol dTMP synthetase from Lactobacillus casei; details: Lacticaseibacillus casei
T1 sequence (whole entry): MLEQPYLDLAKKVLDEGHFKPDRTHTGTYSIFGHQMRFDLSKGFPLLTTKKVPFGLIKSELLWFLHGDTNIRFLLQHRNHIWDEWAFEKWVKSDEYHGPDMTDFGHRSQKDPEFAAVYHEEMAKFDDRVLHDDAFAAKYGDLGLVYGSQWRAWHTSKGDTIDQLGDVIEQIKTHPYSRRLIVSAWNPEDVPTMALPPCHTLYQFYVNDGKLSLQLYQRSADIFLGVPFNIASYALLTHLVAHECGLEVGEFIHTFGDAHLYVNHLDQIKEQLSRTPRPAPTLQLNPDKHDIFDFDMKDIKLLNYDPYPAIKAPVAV

Thymidylate synthase = target: T2, Thymidylate synthase (Lactobacillus casei, UniProt P00469); experiment: The compound was tested for inhibition of dTMP synthetase from Lactobacillus casei; design: species or system Lacticaseibacillus casei
T2 sequence (P00469 whole entry): T1 sequence (whole entry)

Row | dpm bound to protein [1] | Ki (Thymidylate synthase) [nM] | Structure (SMILES)
1 | 15500 | – | O=c1[nH]c(=O)n([C@H]2C[C@H](O)[C@@H](COP(=O)(O)O)O2)cc1F
2 | 1110 | 2700 | C#Cc1cn([C@H]2C[C@H](O)[C@@H](COP(=O)(O)O)O2)c(=O)[nH]c1=O
